Source: the NIST ThermoML archive (doi:10.1016/j.jct.2016.07.012)
Values joined by “and” are separate entries in the source; they are usually repeats but may differ in a detail not shown here. Identical values can stand only once. ± gives the expanded uncertainty stated by the source.

Assay: molar heat capacity at constant pressure
Details: 101.33 kPa, Metastable crystal, Small (less than 1 g) adiabatic calorimetry

CCCCn1cc[n+](C)c1.F[P-](F)(F)(F)(F)F [1-butyl-3-methylimidazolium hexafluorophosphate]
Details	molar heat capacity at constant pressure
5.14 K	2.42 ± 0.07 J/K/mol
5.39 K	2.76 ± 0.08 J/K/mol and 1.64 ± 0.05 J/K/mol
5.67 K	1.92 ± 0.06 J/K/mol
5.74 K	3.28 ± 0.09 J/K/mol
6.01 K	2.31 ± 0.07 J/K/mol
6.1 K	3.85 ± 0.1 J/K/mol
6.43 K	2.83 ± 0.08 J/K/mol
6.54 K	4.59 ± 0.11 J/K/mol
6.93 K	3.51 ± 0.09 J/K/mol
7.06 K	5.54 ± 0.13 J/K/mol
7.43 K	4.3 ± 0.1 J/K/mol
7.59 K	6.57 ± 0.15 J/K/mol
7.94 K	5.16 ± 0.12 J/K/mol
8.12 K	7.67 ± 0.17 J/K/mol
8.46 K	6.12 ± 0.14 J/K/mol
8.66 K	8.84 ± 0.19 J/K/mol
8.98 K	7.15 ± 0.16 J/K/mol
9.2 K	10.06 ± 0.21 J/K/mol
9.51 K	8.25 ± 0.17 J/K/mol
9.75 K	11.33 ± 0.23 J/K/mol
10.05 K	9.41 ± 0.19 J/K/mol
10.36 K	12.83 ± 0.24 J/K/mol
10.66 K	10.82 ± 0.21 J/K/mol
11.05 K	14.53 ± 0.27 J/K/mol
11.34 K	12.43 ± 0.23 J/K/mol
11.75 K	16.3 ± 0.29 J/K/mol
12.02 K	14.11 ± 0.24 J/K/mol
12.45 K	18.11 ± 0.3 J/K/mol
12.71 K	15.86 ± 0.27 J/K/mol
13.16 K	19.96 ± 0.32 J/K/mol
13.41 K	17.66 ± 0.28 J/K/mol
13.87 K	21.84 ± 0.34 J/K/mol
14.11 K	19.5 ± 0.29 J/K/mol
14.59 K	23.69 ± 0.35 J/K/mol
14.82 K	21.33 ± 0.3 J/K/mol
15.31 K	25.67 ± 0.36 J/K/mol
15.64 K	23.71 ± 0.33 J/K/mol
16.14 K	28.07 ± 0.37 J/K/mol
16.58 K	26.38 ± 0.34 J/K/mol
17.09 K	30.62 ± 0.37 J/K/mol
17.53 K	28.96 ± 0.35 J/K/mol
18.04 K	33.1 ± 0.37 J/K/mol
18.47 K	31.53 ± 0.35 J/K/mol
18.99 K	35.56 ± 0.37 J/K/mol
19.42 K	34.1 ± 0.36 J/K/mol
19.94 K	37.99 ± 0.37 J/K/mol
20.38 K	36.68 ± 0.36 J/K/mol
21.2 K	41.25 ± 0.39 J/K/mol
21.63 K	40.09 ± 0.38 J/K/mol
22.78 K	45.26 ± 0.41 J/K/mol
23.2 K	44.28 ± 0.4 J/K/mol
24.36 K	49.25 ± 0.42 J/K/mol
24.78 K	48.5 ± 0.41 J/K/mol
25.94 K	53.1 ± 0.43 J/K/mol
26.36 K	52.53 ± 0.42 J/K/mol
27.42 K	56.44 ± 0.44 J/K/mol
27.74 K	55.76 ± 0.43 J/K/mol
28.99 K	60 ± 0.44 J/K/mol
29.16 K	59.25 ± 0.44 J/K/mol
30.59 K	63.64 ± 0.39 J/K/mol
30.76 K	63.06 ± 0.39 J/K/mol
32.36 K	67.48 ± 0.41 J/K/mol
32.52 K	67.01 ± 0.41 J/K/mol
34.28 K	71.38 ± 0.43 J/K/mol
34.44 K	71.11 ± 0.43 J/K/mol
36.21 K	75.09 ± 0.45 J/K/mol
36.36 K	74.97 ± 0.45 J/K/mol
38.14 K	78.66 ± 0.47 J/K/mol
38.29 K	78.65 ± 0.47 J/K/mol
40.07 K	82.09 ± 0.49 J/K/mol
40.21 K	82.2 ± 0.49 J/K/mol
42.09 K	85.6 ± 0.51 J/K/mol
42.23 K	85.83 ± 0.51 J/K/mol
44.21 K	89.2 ± 0.53 J/K/mol
44.36 K	89.57 ± 0.53 J/K/mol
46.33 K	92.75 ± 0.55 J/K/mol
46.49 K	93.18 ± 0.55 J/K/mol
48.45 K	96.18 ± 0.56 J/K/mol
48.62 K	96.7 ± 0.57 J/K/mol
50.58 K	99.47 ± 0.58 J/K/mol
50.75 K	100 ± 0.6 J/K/mol
52.71 K	102.6 ± 0.6 J/K/mol
52.88 K	103.3 ± 0.6 J/K/mol
54.84 K	105.6 ± 0.6 J/K/mol
55.01 K	106.3 ± 0.6 J/K/mol
56.97 K	108.5 ± 0.6 J/K/mol
57.15 K	109.3 ± 0.6 J/K/mol
59.11 K	111.3 ± 0.6 J/K/mol
59.29 K	112.2 ± 0.7 J/K/mol
61.24 K	114 ± 0.7 J/K/mol
61.43 K	115 ± 0.7 J/K/mol
63.37 K	116.6 ± 0.7 J/K/mol
63.57 K	117.8 ± 0.7 J/K/mol
65.51 K	119.2 ± 0.7 J/K/mol
65.71 K	120.5 ± 0.7 J/K/mol
67.65 K	121.8 ± 0.7 J/K/mol
67.86 K	123.3 ± 0.7 J/K/mol
69.79 K	124.4 ± 0.7 J/K/mol
70.01 K	126 ± 0.7 J/K/mol
72.04 K	127 ± 0.7 J/K/mol
72.26 K	128.8 ± 0.7 J/K/mol
74.39 K	129.8 ± 0.7 J/K/mol
74.61 K	131.7 ± 0.8 J/K/mol
76.74 K	132.5 ± 0.8 J/K/mol
76.97 K	134.6 ± 0.8 J/K/mol
78.34 K	134.5 ± 0.8 J/K/mol
78.72 K	137.3 ± 0.8 J/K/mol
79.09 K	135.1 ± 0.8 J/K/mol
79.34 K	137.4 ± 0.8 J/K/mol
80.13 K	136.3 ± 0.8 J/K/mol
80.5 K	139.2 ± 0.8 J/K/mol
81.45 K	137.7 ± 0.8 J/K/mol
81.7 K	140.2 ± 0.8 J/K/mol
81.8 K	138.1 ± 0.8 J/K/mol
82.15 K	141.2 ± 0.8 J/K/mol
83.48 K	139.8 ± 0.8 J/K/mol
83.81 K	140.2 ± 0.8 J/K/mol
83.82 K	143 ± 0.8 J/K/mol
84.07 K	142.9 ± 0.8 J/K/mol
85.17 K	141.6 ± 0.8 J/K/mol
85.49 K	145 ± 0.8 J/K/mol
86.86 K	143.5 ± 0.8 J/K/mol
87.17 K	146.9 ± 0.8 J/K/mol
88.56 K	145.3 ± 0.8 J/K/mol
88.85 K	148.6 ± 0.8 J/K/mol
90.27 K	147.2 ± 0.8 J/K/mol
90.55 K	150.8 ± 0.8 J/K/mol
91.99 K	149 ± 0.8 J/K/mol
92.25 K	152.7 ± 0.8 J/K/mol
93.71 K	150.9 ± 0.8 J/K/mol
93.96 K	154.7 ± 0.8 J/K/mol
95.45 K	152.7 ± 0.8 J/K/mol
95.67 K	156.7 ± 0.9 J/K/mol
97.19 K	154.7 ± 0.8 J/K/mol
97.39 K	159.1 ± 0.9 J/K/mol
98.94 K	156.5 ± 0.9 J/K/mol
99.12 K	160.7 ± 0.9 J/K/mol
100.69 K	158.4 ± 0.9 J/K/mol
100.85 K	162.3 ± 0.9 J/K/mol
102.5 K	160.3 ± 0.9 J/K/mol
102.65 K	164.4 ± 0.9 J/K/mol
104.38 K	162.4 ± 0.9 J/K/mol
104.51 K	166.4 ± 0.9 J/K/mol
106.27 K	164.4 ± 0.9 J/K/mol
106.38 K	168.5 ± 0.9 J/K/mol
108.17 K	166.5 ± 0.9 J/K/mol
108.26 K	170.5 ± 0.9 J/K/mol
110.06 K	168.6 ± 0.9 J/K/mol
110.13 K	172.5 ± 0.9 J/K/mol
111.96 K	170.7 ± 0.9 J/K/mol
112.01 K	174.6 ± 0.9 J/K/mol
113.86 K	172.8 ± 0.9 J/K/mol
113.9 K	176.6 ± 1 J/K/mol
115.77 K	174.9 ± 0.9 J/K/mol
115.78 K	178.7 ± 1 J/K/mol
117.67 K	180.7 ± 1 J/K/mol
117.68 K	177.1 ± 1 J/K/mol
119.56 K	182.8 ± 1 J/K/mol
119.59 K	179.2 ± 1 J/K/mol
121.46 K	184.9 ± 1 J/K/mol
121.5 K	181.4 ± 1 J/K/mol
123.35 K	186.9 ± 1 J/K/mol
123.41 K	183.7 ± 1 J/K/mol
125.25 K	189.1 ± 1 J/K/mol
